Literature values, collected in patent US20070071679A1, “Methylamine risks and treatment of hyperactivity, depression, and alcoholism with epinephrine-N-quinolines” (priority 2005, published 2007).
Read-outs that look alike come from different tables or passages of the source. Each block holds one compound with its values, some of them ahead of it.

Columns and labels:
[1] = test system: active sleep in a rat model; conditions: during ontogenetic development
[2] = test system: sleep-waking cycles of cats; conditions: for restoration of relative proportions of stages of sleep-waking cycles towards baseline: cats treated with monoamine reuptake inhibitor; for paradoxical (REM) sleep / active sleep: dose not given
[3] = test system: active sleep in kittens
[4] = test system: paradoxical (REM) sleep in rats; conditions: for percentage of paradoxical (REM) sleep: rats aged 34 months, between 4 and 12 hours after i.p. administration
[5] = test system: REM sleep of cats
[6] = test system: regional cerebral blood flow; conditions: human beings
[7] = test system: cerebral blood flow; conditions: cats
[8] = test system: active sleep in kittens; conditions: 6-OHDA pretreated, two weeks and one month of postnatal age
[9] = test system: prepubertal boys and patients with narcolepsy or symptomatic hypersomnia
[10] = test system: human patients; conditions: antihypertensive treatment
[11] = test system: limbic forebrain and cerebellum of rats
[12] = cats, 0.5 mg/kg of body weight intraperitoneally

Compound: CC(C)NCC(O)c1ccc(O)c(O)c1 (centres unmarked) [isoproterenol]
- active sleep [1]: increase active sleep

Compound: CNCCCC1(c2ccccc2)CC(C)(C)c2ccccc21 (centres unmarked) [Prindamine]
- REM sleep latency ([2]; cats, i.p. administration): lengthening
- proportion of time cats are in REM sleep ([2]; during 16 hours after i.p. administration): approximately 7%

Compound: Cc1ccc(N(CC2=NCCN2)c2cccc(O)c2)cc1 [phentolamine]
- active sleep [3]: increase active sleep
- frequency of REM sleep episodes in sleep-waking cycles ([4]; rats): increases the frequency of REM sleep episodes
- percentage of paradoxical (REM) sleep [4]: increase
- duration of the episodes cats were in REM sleep ([5]; REM sleep deprivation plus 20 mg/kg i.p. at the beginning of recovery, n.s.): 6.5 ± 1.9 min
- number of REM episodes ([5]; given at the beginning of recovery after REM sleep deprivation): did not affect
- regional cerebral blood flow [6]: does not affect
- cerebral blood flow [7]: doubled
- restoration of relative proportions of stages of sleep-waking cycles towards baseline [2]: restores significantly
- paradoxical (REM) sleep / active sleep ([2]; mature cats): increase active sleep

Compound: COC(=O)[C@@H]1[C@H]2C[C@H]3c4[nH]c5ccccc5c4CCN3C[C@@H]2CC[C@@H]1O [yohimbine]
- restoration of relative proportions of stages of sleep-waking cycles towards baseline [2]: not

Compound: COc1cc2nc(N3CCN(C(=O)c4ccco4)CC3)nc(N)c2cc1OC [prazosin]
- active sleep ([8]; 0.5 mg/kg i.p.): does not affect active sleep
- percentage of paradoxical (REM) sleep [4]: increase
- restoration of relative proportions of stages of sleep-waking cycles towards baseline [2]: not
- paradoxical sleep ([2]; mature cats, 0.5 mg/kg i.p.): increases paradoxical sleep
- paradoxical (REM) sleep / active sleep ([2]; mature cats): increases paradoxical (REM) sleep

Compound: arginine-vasotocin
- rapid eye movement sleep [9]: induce rapid eye movement sleep

- share of treated patients with clinical depression [10]: one fourth
Compound: COC(=O)[C@H]1[C@H]2C[C@@H]3c4[nH]c5cc(OC)ccc5c4CCN3C[C@H]2C[C@@H](OC(=O)c2cc(OC)c(OC)c(OC)c2)[C@@H]1OC [reserpine]

Compound: CC(C)NC[C@H](O)COc1ccc(O)cc1 [prenalterol]
- paradoxical (REM) sleep / active sleep ([2]; mature cats): increases the amount of paradoxical (REM) sleep

Compound: CC(C)NCC(O)COc1cccc2ccccc12 (centres unmarked) [propranolol]
- restoration of relative proportions of stages of sleep-waking cycles towards baseline [2]: not
- concentrations of serotonin and 5-HIAA ([11]; after exposure during early development): lack of effect
- content of norepinephrine in the limbic forebrain and cerebellum ([11]; at the age of five months after early postnatal exposure): increased content of norepinephrine

Compound: Clc1cccc(Cl)c1N=C1NCCN1 [clonidine]
- active sleep ([8]; 0.01 mg/kg i.p.): suppresses active sleep
- paradoxical sleep (REM sleep) ([2]; mature cats, 0.01 mg/kg i.p.): suppresses paradoxical sleep

Compound: CC(C)NCC(O)COc1cccc2[nH]ccc12 (centres unmarked) [pindolol]
- amount of REM sleep ([2]; cats, 0.1 mg/kg of body weight intraperitoneally): not
- amount of REM sleep [2, 12]: increases the amount of REM sleep
- amount of drowsy wakefulness [2, 12]: increases the amount of drowsy wakefulness
